Source: patent US11420976B2 (priority 2020, dated 2022)
Read-outs that look alike come from different tables or passages of the source.

Columns and labels:
[1] = tested on: Human RSV-A (“Long” strain); test: RSV-A assay (CPE, ATPlite readout in Hep-2 cells); format: cell-based; conditions: human respiratory syncytial virus, 120 h, Hep-2 cells, MOI 0.1, 5-day incubation, ATPlite, read-out: Human RSV-A (“Long” strain) EC50
From the text: Hep-2 cells, (originally derived from tumors grown in irradiated-cortisonised weanling rats that had been injected with epidermoid carcinoma tissue from a person's larynx, but later found to be indistinguishable from HeLa cells by PCR DNA analysis), were used for the culturing of genotype A, “Long” strain RSV. Flasks were inoculated with RSV and viral stocks were collected once cytopathic effect (CPE) was greater than 90%. Viral stocks in 25% sucrose media were snap frozen using liquid nitrogen to increase viral stability. Viral stock titers were quantified by tissue culture infectious dose 50% (TCID50) using 8,000 cells per well and 3-fold viral dilutions across a 96-well plate, cultured for 4 days. Viral stock titers were also quantified by a plaque forming unit assay, as described elsewhere.
Following extensive parameter testing, the final assay is run as follows: Hep-2 cells are seeded into the inner 60 wells of a 96-well plate at 8,000 cells per well in a volume of 50 μL using Growth Media (DMEM without phenol red, 1% L-Glut, 1% Penn/Strep, 1% nonessential amino acids, 10% heat-inactivated FBS). 2-fold serial dilutions of control and test compounds are added to the wells in duplicate in a total volume of 25 μL. Viral stock is then added to the wells at a multiplicity of infection (MOI) of 0.1 in a volume of 25 μL, bringing the total volume of each well to 100 μL. The MOI is calculated using the PFU/mL, or TCID50 if unavailable. Each 96-well plate has a control column of 6 wells with cells and virus but no compound (negative control, max CPE), a column with cells but no compound or virus (positive control, minimum CPE), and a column with no cells or virus or compound (background plate/reagent control). The control wells with cells but no virus are given an additional […], of growth media containing an equal quantity of sucrose as those wells receiving the viral stock in order to keep consistent in media and volume conditions. The outer wells of the plate are filled with 125 μL of moat media (DMEM, 1% Penn/Strep) to act as a thermal and evaporative moat around the test wells. Following a 5-day incubation period, the plates are read using ATPlite (50 uL added per well), which quantifies the amount of ATP (a measure of cell health) present in each well. Assay plates are read using the Envision luminometer. […] EC50 ranges are as follows: A<0.2 μM; B≥0.2 μM.

[2] = tested on: rHMPV-GFP (recombinant HMPV CAN97-83, MPV-GFP1); test: HMPV antiviral assay (eGFP fluorescence in Vero E6 cells); format: cell-based; conditions: Vero C1008, 120 h, read-out: rHMPV-GFP EC50
Protocol: HMPV antiviral activity was evaluated using a recombinant version of HMPV CAN97-83 engineered to contain the coding sequence for enhanced green fluorescence protein (eGFP) in the 3′ end of the virus genome (MPV-GFP1, ViraTree). Vero E6 cells (ATCC #CCL-7) were seeded at a density of 12,000 cells/100 μL/well into 96-well cell plates (VENDOR) one day prior to the assay. On the day of screening, the cell culture medium was aspirated from the wells and cells were washed twice with serum-free Eagle's Modified Essential Medium (EMEM, ATCC #) containing 1% penicillin-streptomycin (Invitrogen) (SF-EMEM). Cell washes were performed by dispensing 100 μL SF-EMEM per well and immediately aspirating the wash medium from the well. Following the second wash step, serum-free OptiMEM (Invitrogen, Cat No.) (SF-OptiMEM) containing 0.5 μg/mL TPCK-Trypsin (VENDOR) and 1% penicillin-streptomycin was added to the cells at 50 μL/well. Compounds were added into the 96-well plates using a JANUS automated liquid handling system (VENDOR). Compounds were initially diluted 1:50 into an intermediate 96-well plate containing SF-OptiMEM prior to transfer to the assay plate (25 μL/well). Each of the test compounds was tested in duplicate wells at final concentrations starting from 8 μM or 2 μM using ½ stepwise dilutions for a total of 8 points. Virus infection was performed by preparing a working stock of MPV-GFP1 at a multiplicity of infection (MOI) equal to 0.05/25 μL and aliquoting 25 μL of virus inoculum to the compound and positive control wells. SF-OptiMEM was added (25 μL/well) to the appropriate wells to serve as a virus-free negative control for the assay. The final DMSO concentration of all wells is 0.5%. Plates were incubated at 32° C., 5% CO2 for 5 days. After 5 days incubation, eGFP fluorescence intensity was measured at […] using a Spectramax i3X plate reader (VENDOR). Percent viral inhibition was calculated using the following equation: y=[[…]]×100 Where XQ is the fluorescence intensity measured in a well containing recombinant MPV-GFP1-infected, compound-treated cells and XP is the average fluorescence intensity measured in the wells containing untreated cells infected with recombinant virus. EC50 values were then calculated by non-linear regression using a four parameter curve logistic equation. The curve fit model employed was XLFit Dose Response One Site Model 200: y=(A+(B/(1+((x/C)^D)))) Where A is the minimum y value, B is the maximum y value, C is the log EC50 value, and D is the slope factor. The EC50 of each compound is listed in Table 2 and EC50 ranges are as follows: A<0.2 μM; B≥0.2 μM.

HRSV = conditions: high risk infants, prophylactic use; cited from earlier work

Compound | EC50 [1] [µM] | EC50 [2] [µM] | EC50 ([1]; in Homo sapiens) [µM] | effective in reducing hospitalizations (HRSV) [%]
COc1cc(C(=O)NC[C@](C)(O)c2cc3c(c(-c4ccc(F)c(F)c4)n2)OC[C@@]3(N)C(F)(F)F)ccc1OC1CC1 [Example 22, N—((S)-2-((R)-3-amino-7-(3,4-difluorophenyl)-3-(trifluoromethyl)-2,3-dihydrofuro[2,3-c]pyridin-5-yl)-2-hydroxypropyl)-4-cyclopropoxy-3-methoxybenzamide] | < 0.2 | < 0.2 | – | –
COc1cc(C(=O)NC[C@](O)(c2cc3c(c(-c4ccc(F)c(F)c4)n2)OC[C@@]3(N)C(F)(F)F)C2CC2)ccc1OC1CC1 [Example 23, N—((S)-2-((R)-3-amino-7-(3,4-difluorophenyl)-3-(trifluoromethyl)-2,3-dihydrofuro[2,3-c]pyridin-5-yl)-2-cyclopropyl-2-hydroxyethyl)-4-cyclopropoxy-3-methoxybenzamide] | < 0.2 | < 0.2 | – | –
COc1cc(C(=O)NC[C@](C)(O)c2cc3c(c(-c4ccc(F)c(Cl)c4)n2)OC[C@@]3(N)C(F)(F)F)ccc1OC1CC1 [Example 24, N—((S)-2-((R)-3-amino-7-(3-chloro-4-fluorophenyl)-3-(trifluoromethyl)-2,3-dihydrofuro[2,3-c]pyridin-5-yl)-2-hydroxypropyl)-4-cyclopropoxy-3-methoxybenzamide] | < 0.2 | < 0.2 | – | –
COc1cc(C(=O)NC[C@](O)(c2cc3c(c(-c4ccc(F)c(Cl)c4)n2)OC[C@@]3(N)C(F)(F)F)C2CC2)ccc1OC1CC1 [Example 25, N—((S)-2-((R)-3-amino-7-(3-chloro-4-fluorophenyl)-3-(trifluoromethyl)-2,3-dihydrofuro[2,3-c]pyridin-5-yl)-2-cyclopropyl-2-hydroxyethyl)-4-cyclopropoxy-3-methoxybenzamide] | < 0.2 | < 0.2 | – | –
C[C@](O)(CNC(=O)c1ccc(OC2CC2)c(OC2CC2)c1)c1cc2c(c(-c3ccc(F)c(F)c3)n1)OC[C@@]2(N)C(F)(F)F [Example 26, N—((S)-2-((R)-3-amino-7-(3,4-difluorophenyl)-3-(trifluoromethyl)-2,3-dihydrofuro[2,3-c]pyridin-5-yl)-2-hydroxypropyl)-3,4-dicyclopropoxybenzamide] | < 0.2 | < 0.2 | – | –
N[C@@]1(C(F)(F)F)COc2c1cc([C@@](O)(CNC(=O)c1ccc(OC3CC3)c(OC3CC3)c1)C1CC1)nc2-c1ccc(F)c(F)c1 [Example 27, N—((S)-2-((R)-3-amino-7-(3,4-difluorophenyl)-3-(trifluoromethyl)-2,3-dihydrofuro[2,3-c]pyridin-5-yl)-2-cyclopropyl-2-hydroxyethyl)-3,4-dicyclopropoxybenzamide] | < 0.2 | < 0.2 | – | –
C[C@](O)(CNC(=O)c1ccc(OC2CC2)c(OC2CC2)c1)c1cc2c(c(-c3ccc(F)c(Cl)c3)n1)OC[C@@]2(N)C(F)(F)F [Example 28, N—((S)-2-((R)-3-amino-7-(3-chloro-4-fluorophenyl)-3-(trifluoromethyl)-2,3-dihydrofuro[2,3-c]pyridin-5-yl)-2-hydroxypropyl)-3,4-dicyclopropoxybenzamide] | < 0.2 | < 0.2 | – | –
N[C@@]1(C(F)(F)F)COc2c1cc([C@@](O)(CNC(=O)c1ccc(OC3CC3)c(OC3CC3)c1)C1CC1)nc2-c1ccc(F)c(Cl)c1 [Example 29] | – | > 0.2 | < 0.2 | –
N[C@@]1(C(F)(F)F)COc2c1cc([C@@](O)(CNC(=O)c1cc(OC3CC3)c3ncccc3c1)C1CC1)nc2-c1ccc(F)c(Cl)c1 [Example 30, N—((S)-2-((R)-3-amino-7-(3-chloro-4-fluorophenyl)-3-(trifluoromethyl)-2,3-dihydrofuro[2,3-c]pyridin-5-yl)-2-cyclopropyl-2-hydroxyethyl)-8-cyclopropoxyquinoline-6-carboxamide] | < 0.2 | > 0.2 | – | –
COc1cc(C(=O)NC[C@H](O)c2cc3c(c(-c4ccc(F)cc4)n2)OC[C@@]3(N)C(F)(F)F)ccc1OC1CC1 [Example 47] | > 0.2 | > 0.2 | – | –
COc1cc(C(=O)NCC(C)c2cc3c(c(-c4ccc(F)c(F)c4)n2)OC[C@@]3(N)C(F)(F)F)ccc1OC1CC1 (stereo partly drawn) [Example 48] | > 0.2 | > 0.2 | – | –
COC[C@](O)(CNC(=O)c1ccc(OC2CC2)c(OC)c1)c1cc2c(c(-c3ccc(F)cc3)n1)OC[C@@]2(N)C(F)(F)F [Example 49, N—((S)-2-((R)-3-amino-7-(4-fluorophenyl)-3-(trifluoromethyl)-2,3-dihydrofuro[2,3-c]pyridin-5-yl)-2-hydroxy-3-methoxypropyl)-4-cyclopropoxy-3-methoxybenzamide] | < 0.2 | > 0.2 | – | –
COc1cc(C(=O)NC[C@@](O)(CO)c2cc3c(c(-c4ccc(F)cc4)n2)OC[C@@]3(N)C(F)(F)F)ccc1OC1CC1 [Example 51, N—((S)-2-((R)-3-amino-7-(4-fluorophenyl)-3-(trifluoromethyl)-2,3-dihydrofuro[2,3-c]pyridin-5-yl)-2,3-dihydroxypropyl)-4-cyclopropoxy-3-methoxybenzamide] | < 0.2 | > 0.2 | – | –
N[C@@]1(C(F)(F)F)COc2c1cc([C@@](O)(CNC(=O)c1cc(OC3CC3)c3nn(C4CC4)cc3c1)C1CC1)nc2-c1ccc(F)cc1 [Example 55c, N—((S)-2-((R)-3-amino-7-(4-fluorophenyl)-3-(trifluoromethyl)-2,3-dihydrofuro[2,3-c]pyridin-5-yl)-2-cyclopropyl-2-hydroxyethyl)-7-cyclopropoxy-2-cyclopropyl-2H-indazole-5-carboxamide] | < 0.2 | < 0.2 | – | –
N[C@@]1(C(F)(F)F)COc2c1cc([C@@](O)(CNC(=O)c1cc(OC3CC3)c3nn(C4CC4)cc3c1)C1CC1)nc2-c1ccc(F)c(Cl)c1 [Example 55d, N—((S)-2-((R)-3-amino-7-(3-chloro-4-fluorophenyl)-3-(trifluoromethyl)-2,3-dihydrofuro[2,3-c]pyridin-5-yl)-2-cyclopropyl-2-hydroxyethyl)-7-cyclopropoxy-2-cyclopropyl-2H-indazole-5-carboxamide] | < 0.2 | < 0.2 | – | –
Cn1cc2cc(C(=O)NC[C@](O)(c3cc4c(c(-c5ccc(F)cc5)n3)OC[C@@]4(N)C(F)(F)F)C3CC3)cc(OC3CC3)c2n1 [Example 66, N—((S)-2-((R)-3-amino-7-(4-fluorophenyl)-3-(trifluoromethyl)-2,3-dihydrofuro[2,3-c]pyridin-5-yl)-2-cyclopropyl-2-hydroxyethyl)-7-cyclopropoxy-2-methyl-2H-indazole-5-carboxamide] | < 0.2 | < 0.2 | – | –
Palivizumab | – | – | – | 60
